Experimental data from US6468522B1, “Controlled release of thioamide moiety-containing therapeutic agents” (priority 1999, dated 2002).

Tests used:
[1] = Reductive release of drug from disulfide conjugate (DTT or glutathione, TLC); assay type: physicochemical; details: organic phase
Method: III Release of UC781 from mPEG-S—S-UC781. […] Then, 0.5 ml of 6 mM dithiothreitol (DTT) in DCM was added to the conjugate solution.
After 2 hours at room temperature, the reaction mixture was taken to dryness by speed vacuum.
In an alternate procedure to the above, cysteamine may be used in place of 1-amino-2-methyl-2-propanethiol, which produces a UC781 conjugate (PEG-CO—NH—CH2—CH2—S—S—UC781) with less sterically hindered thiol groups and therefore with a ˜100-fold faster release under reducing conditions.

[2] = Kinetics following intravenous injection of PEG-S-S-UC781 in rabbits; assay type: in vivo; details: rabbit
Method: The wavelength for detection of UC781 is 290 nm.
An in-vivo experiment was done in duplicate in rabbits (about 3.6 kg, New Zealand white, female), performed according to protocol #I99-054 approved by the IACUC of UMDNJ-Robert Wood Johnson Medical School. […] Blood samples were drawn from the auricular artery of the opposite ear prior to and at predetermined time points after injection. Immediately after the blood was drawn, 1 ml was mixed with 2 ml of acetonitrile, vortexed, kept on ice for 10 min and then centrifuged at 1000×g for 10 min at 4° C. The supernatant was collected and analyzed by reverse phase HPLC, as described above. Blood levels were determined with time by HPLC with and without the DTT reductive cleavage step (FIG. 7).

[3] = Kinetics following intramuscular injection of PEG-S-S-UC781 in mice; assay type: in vivo
Method: An in-vivo experiment was done twice in mice (about 25 g, […]), performed according to protocol #I00-001, approved by the IACUC. […] Twenty mg, equivalent to 0.5 mg of UC781, was dissolved in 1 ml of PBS and injected into the leg muscle. At each time point, a mouse was euthanized, blood was collected and the injected muscle was removed. The blood samples were treated with 2 volumes of acetonitrile as described above. The tissue samples were homogenized with 1 ml of PBS and then treated with 2 volumes of acetonitrile, as above. The samples were then analyzed by reverse phase HPLC. […] Recovery and extraction efficiency from the muscle was tested by injection into the excised muscle from a freshly euthanized mouse.

HIV-RT = HIV-RT (Human immunodeficiency virus type 1 group M subtype B, UniProt P03366); experiment: Reverse transcriptase (RT) inhibition assay; assay type: biochemical; details: for UC781 concentration found by RT assay: predicted 30 nM
Method: UC781 standard solutions were prepared in DMSO. The stock solution of HIV-RT (13.5 Units/μl) was diluted to 25 mUnits/μl in buffer comprising 50 mM Tris-HCl, pH 8.0, 1 mM DTT, 0.01% bovine serum albumin (BSA). Each assay tube contained 40 μl of a solution comprising 50 mM Tris-HCl, pH 8.0, 4 mM DTT, 12.4 mM MgCl2, 50 mM KCl, 0.01% BSA, 10 μg/ml poly(A), 0.01 mM dTTP and […] [α-^32P]dTTP, 2 μl of diluted RT and 3 μl of sample dissolved in DMSO. Samples were incubated at 37° C. for 30 minutes. The polymerization reaction was stopped by adding 0.15 mg/ml of salmon sperm DNA and chilling on ice. An aliquot (20 μl) of each reaction mixture was spotted onto square stamped GF/C filter paper (12.5 cm in diameter) presoaked with 10% trichloroacetic acid (TCA). After the spots were dry, the paper was rinsed with 50 ml of ice cold 10% TCA twice, 50 ml of ice cold water three times and then once with 25 ml of ice cold 95% ethanol in a Buchner funnel. The paper was dried, cut into squares and each square was counted in 4 ml of LSC cocktail (National Diagnostics).
The reverse transcriptase inhibition (RT) assay was used to confirm that the compound released in blood is truly active UC781. […] As a control, authentic UC781 was run on the HPLC column and the peak was collected at 24.2 minutes. […] An aliquot of each HPLC fraction, providing a predicted concentration of 30 nM in the RT assay, was analyzed.

in vitro = details: rabbit
Method: UC781 was analyzed using an HPLC reverse phase column, PRP-1 (Hamilton, Reno, Nev.), under the following condition: mobile phase A: 20% acetonitrile, mobile phase B: 90% acetonitrile, flow rate: 1 ml/min. Gradient: 0-2 min, 100% A; 2-20 min, linear gradient from 100% A to 100% B; 20-28 min, 100% B; 28—30 min, linear gradient from 100% B to 100% A; 30-35 min, 100% A. Under these experimental conditions, the retention time for UC781 is 24.2 min. The wavelength for detection of UC781 is 290 nm.
To each 1 ml sample of EDTA-treated rabbit blood, 2 ml of acetonitrile was added, mixed and kept on ice for 10 min. The mixture was centrifuged at 1000×g for 10 min. The supernatant was collected and an aliquot (300 μl) was injected into the reverse phase column. […] After centrifugation, 400 μl of the supernatant was analyzed, either without or with DTT pretreatment (3 mM for 2 hours at room temperature).
However, prior reduction with DTT should give the total concentration of UC781 since the conjugated UC781 is converted into the free form prior to HPLC. […] Recovery through the extraction procedure was determined by spiking a known amount of either free or conjugated UC781 into EDTA-treated rabbit blood prior to acetonitrile extraction.

| release of drug from conjugate by DTT [1] | SMILES | UC781 concentration in plasma higher than in matched whole blood ([2]; EDTA-treated blood, duplicate sample) | half-life of UC781 in the bloodstream ([2]; after iv PEG-S-S-UC781) | level of UC781 in tissue samples ([3]; mouse injected muscle, after 1 hour) | UC781 in blood samples ([3]; mouse, im, HPLC) | UC781 concentration found by RT assay (HIV-RT; HPLC peak fraction of rabbit blood 5 min after iv PEG-S-S-UC781) [nM] | activity of compound recovered from blood (HIV-RT; RT assay, blood versus standard) | UC781 concentration found by RT assay (HIV-RT; authentic UC781 standard HPLC fraction) [nM] | recovery at 10 min, 10 µg/mL (in vitro) [%] |
| --- | --- | --- | --- | --- | --- | --- | --- | --- | --- |
| reductively released | O=c1[nH]c(=S)ccn1[C@@H]1O[C@H](CO)[C@@H](O)[C@H]1O [4-thiouridine, 4-Thiouridine] | – | – | – | – | – | – | – | – |
| – | CC(C)=CCOc1cc(NC(=S)c2ccoc2C)ccc1Cl [UC781, N-[4-chloro-3-(3-methyl-2-butenyloxy)phenyl]-2-methyl-3-furancarbothioamide] | about 10% | several minutes | more than 10% | below the detection limit | 26 | fully active | 27 | 113 |
